Source: patent EP1500391A1, “Therapeutic use of bicycloheptane derivatives” (NEURO3D, priority 2003, dated 2005)
Like-named read-outs stand apart in the source and are kept apart here.

Columns and labels:
human 5-HT6 receptor = human 5-HT6 receptor (Homo sapiens, UniProt P50406); test: 5HT6 radioligand binding assay ([3H] LSD); conditions: read-out: %inhibition 5HT6
Procedure: 5HT6 ASSAY : Evaluation of the affinity of compounds for the human 5-HT6 receptor in transfected HEK 293 cells determined in a radioligand binding assay. Cell membrane homogenates (15-20 µg protein) were incubated for 60 min at 37°C with 2 nM [^3H] LSD in the absence or presence of the test compound in a buffer containing 50 mM Tris-HCl (pH 7.4), 10 mM MgCl2 and 0.5 mM EDTA. Nonspecific binding was determined in the presence of 100 µM 5-HT. Following incubation, the samples were filtered rapidly under vacuum through glass fiber filters (GF/B, Packard) presoaked with 0.3% PEI and rinsed several times with ice-cold 50 mM Tris-HCl using a 96-sample cell harvester (Unifilter, Packard). The filters were dried then counted for radioactivity in a scintillation counter (Topcount, Packard) using a scintillation cocktail (Microscint 0, Packard).
The specific ligand binding to the receptor is defined as the difference between the total binding and the non specific binding determined in the presence of an excess of unlabelled ligand. The results are expressed as a percentage of control specific binding and as a percentage inhibition of control specific binding obtained in the presence of the compounds.

human 5-HT2A receptor = biological target: T1, human 5-HT2A receptor (Homo sapiens, UniProt P28223); test: 5HT2a radioligand binding assay ([3H]ketanserin); conditions: inhibition of control specific binding; at 1µM (concentration printed only in head of Cpd A); human recombinant
T1 construct: expressed in transfected cells; host or cells: HEK-293 cells

[1] = tested on: non-selective sigma receptor; test: σ radioligand binding assay ([3H]DTG); conditions: inhibition of control specific binding; at 1µM (concentration printed only in head of Cpd A); rat cerebral cortex
[2] = biological target: human dopamine D3 receptor (Homo sapiens, UniProt P35462); test: D3 radioligand binding assay ([3H]spiperone); conditions: read-out: %inhibition D3
Procedure: Nonspecific binding was determined in the presence of 10 µM (+)butaclamol. Following incubation, the samples were filtered rapidly under vacuum through glass fiber filters (GF/B, Packard) presoaked with 0.3% PEI and rinsed several times with ice-cold 50 mM Tris-HCl using a 96-sample cell harvester (Unifilter, Packard). The filters were dried then counted for radioactivity in a scintillation counter (Topcount, Packard) using a scintillation cocktail (Microscint 0, Packard). The specific ligand binding to the receptor is defined as the difference between the total binding and the non specific binding determined in the presence of an excess of unlabelled ligand. The results are expressed as a percentage of control specific binding and as a percentage inhibition of control specific binding obtained in the presence of the compounds.

[3] = biological target: human dopamine D2S receptor (Homo sapiens, UniProt P14416); test: D2 radioligand binding assay ([3H]spiperone); conditions: read-out: %inhibition D2
human 5-HT2C receptor = biological target: T2, human 5-HT2C receptor (Homo sapiens, UniProt P28335); test: 5HT2c radioligand binding assay ([3H]mesulergine); conditions: inhibition of control specific binding; at 1µM (concentration printed only in head of Cpd A); transfected CHO cells
T2 construct: expressed in transfected cells; host or cells: CHO cells
T2 sequence (P28335 33-458): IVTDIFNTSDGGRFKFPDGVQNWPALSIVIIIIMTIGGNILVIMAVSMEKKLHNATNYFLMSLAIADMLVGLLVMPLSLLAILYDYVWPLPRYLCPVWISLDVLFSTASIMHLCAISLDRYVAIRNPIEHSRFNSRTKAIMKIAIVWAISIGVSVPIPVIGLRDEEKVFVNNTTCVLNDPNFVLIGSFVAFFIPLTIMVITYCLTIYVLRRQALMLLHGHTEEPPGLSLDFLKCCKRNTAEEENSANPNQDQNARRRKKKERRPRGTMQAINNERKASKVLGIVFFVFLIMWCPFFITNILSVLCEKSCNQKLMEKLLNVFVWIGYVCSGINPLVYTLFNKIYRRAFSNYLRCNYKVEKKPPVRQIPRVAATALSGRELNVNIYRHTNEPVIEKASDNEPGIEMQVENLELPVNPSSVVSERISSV

[4] = inhibition of control specific binding, at 1µM (concentration printed only in head of Cpd A), transfected CHO cells

human dopamine D2S receptor, sequence (P14416 1-414 isoform P14416-2): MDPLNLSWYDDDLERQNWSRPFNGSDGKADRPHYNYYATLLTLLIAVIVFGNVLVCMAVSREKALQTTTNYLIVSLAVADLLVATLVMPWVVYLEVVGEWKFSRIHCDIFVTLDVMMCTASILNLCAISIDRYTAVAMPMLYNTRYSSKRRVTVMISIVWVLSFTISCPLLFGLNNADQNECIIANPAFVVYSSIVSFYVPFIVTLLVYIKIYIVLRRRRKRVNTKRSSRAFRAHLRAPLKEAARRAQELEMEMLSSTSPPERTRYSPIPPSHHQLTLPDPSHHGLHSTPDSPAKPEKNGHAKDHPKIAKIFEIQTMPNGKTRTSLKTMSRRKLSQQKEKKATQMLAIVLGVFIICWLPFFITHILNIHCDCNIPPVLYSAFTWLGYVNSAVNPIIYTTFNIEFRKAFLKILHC
human dopamine D3 receptor, sequence (P35462 whole entry): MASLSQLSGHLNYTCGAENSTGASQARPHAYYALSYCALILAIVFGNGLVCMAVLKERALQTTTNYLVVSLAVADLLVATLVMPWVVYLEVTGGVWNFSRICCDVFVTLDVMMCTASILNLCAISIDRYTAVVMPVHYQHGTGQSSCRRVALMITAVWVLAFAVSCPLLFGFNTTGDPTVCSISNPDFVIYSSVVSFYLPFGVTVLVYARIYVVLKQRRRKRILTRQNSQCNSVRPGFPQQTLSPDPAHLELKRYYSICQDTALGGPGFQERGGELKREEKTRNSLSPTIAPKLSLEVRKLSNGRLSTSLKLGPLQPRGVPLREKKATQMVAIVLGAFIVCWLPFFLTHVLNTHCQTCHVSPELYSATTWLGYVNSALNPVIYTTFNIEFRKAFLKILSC
human 5-HT6 receptor, sequence (P50406 whole entry): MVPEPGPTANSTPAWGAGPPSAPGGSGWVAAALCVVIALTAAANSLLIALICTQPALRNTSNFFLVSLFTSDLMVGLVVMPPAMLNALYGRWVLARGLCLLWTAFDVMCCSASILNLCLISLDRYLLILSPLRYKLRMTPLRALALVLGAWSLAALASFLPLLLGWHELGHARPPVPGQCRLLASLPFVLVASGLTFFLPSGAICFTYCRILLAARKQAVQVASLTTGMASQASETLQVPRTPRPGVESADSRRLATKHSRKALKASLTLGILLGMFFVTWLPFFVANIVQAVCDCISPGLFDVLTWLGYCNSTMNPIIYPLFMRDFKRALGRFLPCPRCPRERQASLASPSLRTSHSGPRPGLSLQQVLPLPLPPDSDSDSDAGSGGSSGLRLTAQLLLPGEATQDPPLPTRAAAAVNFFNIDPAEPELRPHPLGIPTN
T1 sequence (P28223 whole entry): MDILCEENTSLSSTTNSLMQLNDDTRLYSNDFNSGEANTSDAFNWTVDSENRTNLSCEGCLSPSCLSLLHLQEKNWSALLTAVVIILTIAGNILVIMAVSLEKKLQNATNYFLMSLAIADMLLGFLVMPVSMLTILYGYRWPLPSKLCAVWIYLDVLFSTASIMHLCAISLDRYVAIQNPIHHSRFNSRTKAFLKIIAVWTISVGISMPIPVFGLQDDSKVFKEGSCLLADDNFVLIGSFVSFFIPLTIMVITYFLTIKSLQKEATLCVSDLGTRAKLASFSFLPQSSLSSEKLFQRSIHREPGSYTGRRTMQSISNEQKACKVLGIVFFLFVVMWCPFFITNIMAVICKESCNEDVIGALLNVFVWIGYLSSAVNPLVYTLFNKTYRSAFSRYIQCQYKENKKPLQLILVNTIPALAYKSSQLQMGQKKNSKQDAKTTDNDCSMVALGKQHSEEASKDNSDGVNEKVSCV

Row | Compound | inhibition at 1 µM (human 5-HT6 receptor) | inhibition at 1 µM (human 5-HT2A receptor) | %inhibition σ [1] | inhibition at 1 µM [2] | inhibition at 1 µM [3] | inhibition at 1 µM (human 5-HT2C receptor) | inhibition at 1 µM [2, 4] | inhibition at 1 µM [3, 4]
1 | CN(C)CCO[C@]1(c2ccccc2)C[C@H]2CC[C@]1(C)C2(C)C [Cpd B, (1R,2S,4R)-(-)-2-[N,N-(dimethylaminoethoxy)]-2-phenyl-1,7,7-trimethyl-bicyclo[2.2.1]heptane] | 88% | 99% | 72% | 89% | 74% | 99% | – | –
2 | CN(C)CCO[C@@]1(c2ccccc2)C[C@@H]2CC[C@@]1(C)C2(C)C [Cpd A, (1S,2R,4S)-(+)-2-[N,N-(dimethylaminoethoxy)]-2-phenyl-1,7,7-trimethyl-bicyclo[2.2.1]heptane] | 44% | 93% | 56% | 32% | 29% | 79% | – | –
3 | CNCCO[C@@]1(c2ccccc2)C[C@@H]2CC[C@@]1(C)C2(C)C [Cpd C, (1S,2R,4S)-(+)-2-methylaminoethoxy-2-phenyl-1,7,7-trimethyl-bicyclo[2.2.1]heptane] | 36% | 89% | – | – | – | 65% | 24% | 10%
4 | CNCCO[C@]1(c2ccccc2)C[C@H]2CC[C@]1(C)C2(C)C [Cpd D, (1R,2S,4R)-(-)-2-methylaminoethoxy-2-phenyl-1,7,7-trimethyl-bicyclo[2.2.1]heptane] | 89% | 98% | – | – | – | 97% | 81% | 57%
